Key:
PAO3C cells = experiment: Immunoblot of PAO3C pancreatic cell lysates; assay type: cell-based; conditions: 1 uM
Description: Cell lysate was subjected to immunoblot and probed for anti UB antibody. For Bax proteins levels cells were treated for 24 hr. Actin used as […].

HOK-16B = experiment: Cell viability after 48-hr treatment (Table 1); assay type: cell-based; conditions: 48-hr treatment; XTT assay; read-out: IC50, HOK-16B
Description: (§1) Cell viability was assayed using CellTiter 960 AQueous One Solution Reagent (Promega, Madison, Wis.). Cells seeded at the concentration of 1,000 cells/well for HeLa, 5,000 cells/well for ES2 and HCT116 and 10,000-20,000 cells/well for other cell lines in 100 μL medium in 96-well plate were treated with RA series compounds at specified concentrations. After the indicated periods, cells were incubated according to the manufacturer's protocol with the MTS labeling mixture for 1-2 hr and absorbance at 490 nm measured using a Benchmark Plus microplate spectrophotometer (BIO-RAD).

CasKi = experiment: Cell viability after 48-hr treatment (Table 1); assay type: cell-based; conditions: 48-hr treatment; XTT assay; read-out: IC50, CasKi
Description: as §1

TC-1 tumor = TC-1 tumor in C57BL6 mice; assay type: in vivo, mouse
Description: (§2) For TC-1 tumors, C57BL/6 mice (8/group) were challenged subcutaneously with 5×10^4 TC-1 cells/mice. Tumors grew for approximately 7 days until they were palpable, whereupon the mice were weighed and treatment was initiated. Tumor size was measured with a digital caliper and calculated based on the formula: [largest diameter×(perpendicular diameter)2]π/6. Nude mice (8 per group) were inoculated with 1×10^6 EΩ-Luciferase cells i.p. in 100 μL PBS. At day 3 mice were imaged for basal level luminescence expression. […] NOG mice (5 per group) were inoculated with 1×10^6 NCI-H929-GFP-Luc cells i.v., and after 4 weeks, mice were imaged for their luciferase activity and divided into two groups.
Splenocytes were prepared and stimulated with HPV16 E7aa49-57 peptide (1 μg/mL) at the presence of GolgiPlug (BD Pharmingen) overnight at 37° C. The cells were first stained with PE-conjugated anti-mouse CD 8α (BD Pharmingen), then permeabilized, fixed and intracellularly stained with FITC-conjugated anti-mouse IFN-γ (BD Pharmingen). The data were acquired with FACS Calibur and analyzed with CellQuest software.

ES2-luciferase tumor = ES2-luciferase tumor in nude mice; assay type: in vivo, mouse; conditions: 10 mg/kg i.p. every day, 14 days
Text: (§3) Prior to and at the end of the treatment, mice were imaged for bioluminescence. […] The mice were imaged before and at the end of the treatment for bioluminescence levels. We have previously described the susceptibility of human ovarian cancer lines to proteasome inhibition. […] Prior to and 7 and 14 days after initiation of treatment, the mice were imaged for luciferase activity.
as §2

[1] = test system: NCI-H929-GFP-luc human tumor cells; experiment: NCI-H929 MM tumor in NOG mice; assay type: in vivo, mouse; conditions: 20 mg/kg/day i.p., 7 days
Text: as §3, §2

[2] = test system: p53 in HeLa, CaSki, and SiHa cells; experiment: Immunoblot for p53 in cervical cancer cells; assay type: cell-based; conditions: 24 hr
Description: Tubulin was used as a loading control.
Total cellular protein (10-20 μg) from each sample was subjected to SDS-PAGE, transferred to PVDF membranes and analyzed by Western blot. Antibodies for Western blot analysis were obtained by the following commercial sources: anti-ubiquitin, anti-p53 (FL393), anti-p21(WAF1), anti-hDLG-1(2D11), anti-Puma, Bak, Bax (Cell Signaling Technology, Danvers, Mass.), anti-IκB-α (C-15), anti-ATF-4 (SC-200) (Santa Cruz Biotechnology, Santa Cruz, Calif.), anti-PARP (BD Pharmingen, San Diego, Calif.), anti HSP90 (Stressgen Corp, Victoria BC, Canada), anti-tubulin (Sigma, St. Louis, Mo.), anti-Actin, anti-ADRM1 (anti-RPN13), anti-RPN2 (anti-PSMD1) (Sigma-Aldrich), anti-RPN10, UCH37 (Cell-signaling), anti-RPN1 (proteasome 19S subunit anti-S2) (Thermo Scientific), streptavidin Dyna beads (Invitrogen), HRP-streptavidin (Invitrogen), peroxidase-linked anti-mouse Immunoglobulin G and anti-rabbit IgG (GE Healthcare UK Ltd, UK) and utilized at the concentration recommended by the manufacturer.

4UbFL reporter = experiment: Proteasome inhibition in vivo (4UbFL reporter bioluminescence)
Description: After the indicated time points of treatment, bioluminescence was measured by injection of luciferin and imaging with an IVIS 200 (fold change±SD, *p<0.05, **p<0.01).
Two hours after gene gun delivery of the plasmid or one day post electroporation, mice were injected i.p. with 100 uL of luciferin (3 mg/mL) and anesthetized with isoflurane and optical imaging was performed for basal level luciferase expression. Images were acquired for 10 min with a Xenogen IVIS 200 (Caliper, Hopkinton, Mass.). Equally sized areas were analyzed using Living Image 2.20 software.

[3] = Pharmacokinetic measurements, plasma; assay type: in vivo, mouse; conditions: 20 mg/kg oral, BALB/c mice
[4] = i.m. electroporated 4UbFL, RA190 40 mg/kg i.p., bortezomib 1.5 mg/kg i.p.

SMILES: Cl.NCCCC[C@H](NC(=O)OCC1c2ccccc2-c2ccccc21)C(=O)N1C/C(=C\c2ccc(Cl)c(Cl)c2)C(=O)/C(=C/c2ccc(Cl)c(Cl)c2)C1 [RA195]
- Poly Ubiquitinated proteins (PAO3C cells; 12 h): causes accumulation of Poly Ubiquitinated proteins
- apoptotic protein Bax (PAO3C cells; 24 hr): elevation of apoptotic protein Bax

SMILES: Cl.N[C@@H](Cc1ccccc1)C(=O)N1CC(=Cc2ccc(Cl)c(Cl)c2)C(=O)C(=Cc2ccc(Cl)c(Cl)c2)C1 [RA190, 3,5-bis(3,4-dichlorobenzylidene)-1-(S-2-amino-3-phenyl)-piperidin-4-one-HCl salt]
- IC50 (HOK-16B): 600 nM
- IC50 (CasKi): 300 nM
- polyubiquitinated proteins in tumor lysates (TC-1 tumor; i.p. 20 mg/kg daily for 7 days, western blot): dramatically elevated
- weight gain and spontaneous E7-specific CD8+ T cell response versus vehicle (TC-1 tumor; oral 40 mg/kg every third day): did not differ significantly
- final tumor weight (TC-1 tumor; oral 40 mg/kg every third day, after 14-day treatment period): 727 ± 101 mg
- TC-1 tumor growth versus vehicle (TC-1 tumor; oral 40 mg/kg every third day, p<0.001): significantly inhibited
- ES2 tumor growth (bioluminescence) (ES2-luciferase tumor): significantly inhibited
- antitumor activity (bioluminescence) [1]: potent antitumor activity
- p53 levels [2]: elevated p53 levels
- bioluminescence after oral administration (4UbFL reporter; 40 mg/kg orally, 4UbFL i.m. by electroporation or in skin via gene gun): increased the bioluminescence
- 4UbFL reporter in skin after topical administration (4UbFL reporter; 4% in Cremophor-EL topically): stabilized the 4UbFL reporter in skin
- bioluminescence at 48 hr after treatment (4UbFL reporter; i.m. electroporated 4UbFL, RA190 40 mg/kg i.p.): significant increase in bioluminescence
- bioluminescence compared to vehicle alone, 4 hr after treatment (4UbFL reporter; [4]): 4 fold
- increase in bioluminescence, one day post-treatment (4UbFL reporter; [4]): 4 fold
- AUC [3]: 634 ng·h/mL
- C1/F [3]: 31.6 L/h/kg
- Cmax [3]: 133 ng/mL
- T1/2β [3]: 2.6 h
- Ud/F [3]: 117.3 L/kg

Source: patent publication US10500198B2, “Bis-benzylidine piperidone proteasome inhibitor with anticancer activity” (The Johns Hopkins University, priority 2013, dated 2019)
